In ChEMBL document CHEMBL1132978, “Artificial neural network applied to prediction of fluorquinolone antibacterial activity by topological methods” (2000) one finds MIC data, which are given here for 46 compounds.

Molecules are shown by their SMILES. Values after ≈ are worked out from the molar mass of the structure shown.

This assay has as its system Escherichia coli. Kind of assay: Minimum inhibitory concentration against Escherichia coli. Format: functional.
The term MIC denotes the lowest concentration found to suppress growth. High values mean a need for much substance, low ones inhibition by little substance. `COc1c(N2CCC(N)CC2)c(F)c(N)c2c(=O)c(C(=O)O)cn(C3CC3)c12` gave an MIC of 0.1 mg/L (≈ 0.256 µM).
`CNCC1CCN(c2cc3c(cc2F)c(=O)c(C(=O)O)cn3-c2ccc(F)cc2F)C1` (stereo unspecified) registered an MIC of 0.2 mg/L (≈ 0.464 µM).
In the case of `CC1CN(c2cc3c(cc2F)c(=O)c(C(=O)O)cn3C2CCC2)CC(C)N1` (stereo unspecified) it was 0.4 mg/L (≈ 1.07 µM); in that of `CCn1cc(C(=O)O)c(=O)c2cc(F)c(N3CCC(CNC)C3)cc21` (stereo unspecified), 3.1 mg/L (≈ 8.92 µM).
The same measure for `NCC1CCN(c2c(F)cc3c(=O)c(C(=O)O)cn(C4CC4)c3c2F)C1` (stereo unspecified): 0.025 mg/L (≈ 0.0688 µM); for `COc1c(N2CCNCC2)c(F)cc2c(=O)c(C(=O)O)cn(C3CC3)c12`: 0.05 mg/L (≈ 0.138 µM).
`CC(N)C1CCN(c2c(F)cc3c(=O)c(C(=O)O)cn(C4CC4)c3c2F)C1` (stereo unspecified) returned an MIC of 0.013 mg/L (≈ 0.0344 µM).
The same measure for `CNCC1CCN(c2cc3c(cc2F)c(=O)c(C(=O)O)cn3C(C)(C)C)C1` (stereo unspecified): 0.4 mg/L (≈ 1.07 µM); for `CC(C)(C)n1cc(C(=O)O)c(=O)c2cc(F)c(N3CCNCC3)cc21`: 0.2 mg/L (≈ 0.576 µM); for `CC(C)CN1CCN(c2cc3c(cc2F)c(=O)c(C(=O)O)cn3-c2ccc(F)cc2F)CC1`: 3.1 mg/L (≈ 6.75 µM).
The same measure for `CCOc1c(N2CCC(C)C2)c(F)cc2c(=O)c(C(=O)O)cn(C3CC3)c12` (stereo unspecified): 0.05 mg/L (≈ 0.134 µM); for `CC(C)N1CCN(c2cc3c(cc2F)c(=O)c(C(=O)O)cn3-c2ccc(F)cc2F)CC1`: 0.8 mg/L (≈ 1.8 µM).
The same measure for `CC(N)C1CCN(c2cc3c(c(N)c2F)c(=O)c(C(=O)O)cn3C2CC2)C1` (stereo unspecified): 0.025 mg/L (≈ 0.0668 µM); for `COc1c(N2CCC(CN)CC2)c(F)cc2c(=O)c(C(=O)O)cn(C3CC3)c12`: 0.1 mg/L (≈ 0.257 µM); for `COc1c(N2CCCC(N)C2)c(F)c(N)c2c(=O)c(C(=O)O)cn(C3CC3)c12` (stereo unspecified): 0.1 mg/L (≈ 0.256 µM).
Consider `NC1CCN(c2cc3c(cc2F)c(=O)c(C(=O)O)cn3C2CC2)C1` (stereo unspecified), for which the MIC was found to be 0.05 mg/L (≈ 0.151 µM).
The same measure for `CCCCN1CCN(c2cc3c(cc2F)c(=O)c(C(=O)O)cn3C2CC2)CC1`: 0.1 mg/L (≈ 0.258 µM); for `CCNCC1CCN(c2cc3c(c(N)c2F)c(=O)c(C(=O)O)cn3C2CC2)C1` (stereo unspecified): 0.1 mg/L (≈ 0.257 µM); for `NCC1CCCN(c2c(F)cc3c(=O)c(C(=O)O)cn(C4CC4)c3c2F)C1` (stereo unspecified): 0.05 mg/L (≈ 0.132 µM).
In the case of `CCN1CCN(c2cc3c(cc2F)c(=O)c(C(=O)O)cn3C2CCC2)CC1` it was 0.8 mg/L (≈ 2.14 µM); in that of `CC1CN(c2cc3c(cc2F)c(=O)c(C(=O)O)cn3C(C)(C)C)CCN1` (stereo unspecified), 0.1 mg/L (≈ 0.277 µM).
The same measure for `CCOc1c(N2CCCC(N)C2)c(F)cc2c(=O)c(C(=O)O)cn(C3CC3)c12` (stereo unspecified): 0.2 mg/L (≈ 0.514 µM); for `CCNCC1CCN(c2c(F)cc3c(=O)c(C(=O)O)cn(C4CC4)c3c2OCC)CC1`: 0.8 mg/L (≈ 1.85 µM).
In turn, `Nc1c(F)c(N2CCC(N)C2)c(F)c2c1c(=O)c(C(=O)O)cn2C1CC1` (stereo unspecified) showed an MIC of 0.006 mg/L (≈ 0.0165 µM).
The same measure for `CNC(C)C1CCN(c2cc3c(c(N)c2F)c(=O)c(C(=O)O)cn3C2CC2)C1` (stereo unspecified): 0.1 mg/L (≈ 0.257 µM); for `NCC1CCCN(c2cc3c(cc2F)c(=O)c(C(=O)O)cn3C2CC2)C1` (stereo unspecified): 0.4 mg/L (≈ 1.11 µM).
In the case of `COc1c(N2CCC(C)(CN)C2)c(F)c(N)c2c(=O)c(C(=O)O)cn(C3CC3)c12` (stereo unspecified) it was 0.1 mg/L (≈ 0.247 µM); in that of `CCNCC1CCN(c2nc3c(cc2F)c(=O)c(C(=O)O)cn3-c2ccc(F)cc2F)C1` (stereo unspecified), 0.2 mg/L (≈ 0.448 µM).
The same measure for `CCNCC1CCN(c2c(F)c(N)c3c(=O)c(C(=O)O)cn(C4CC4)c3c2F)C1` (stereo unspecified): 0.05 mg/L (≈ 0.123 µM).
In turn, `CCNCC1CCN(c2nc3c(cc2F)c(=O)c(C(=O)O)cn3C2CC2)C1` (stereo unspecified) showed an MIC of 0.1 mg/L (≈ 0.267 µM).
The same measure for `CCNCC1CCN(c2cc3c(cc2F)c(=O)c(C(=O)O)cn3C2CC2)C1` (stereo unspecified): 0.1 mg/L (≈ 0.268 µM); for `NCC1CCN(c2nc3c(cc2F)c(=O)c(C(=O)O)cn3C2CC2)C1` (stereo unspecified): 0.05 mg/L (≈ 0.144 µM); for `CC1CN(c2cc3c(cc2F)c(=O)c(C(=O)O)cn3C2CC2)CC(C)N1` (stereo unspecified): 0.05 mg/L (≈ 0.139 µM).
The same measure for `CN(C)CC1CCN(c2cc3c(cc2F)c(=O)c(C(=O)O)cn3C2CC2)C1` (stereo unspecified): 0.2 mg/L (≈ 0.536 µM).
The same measure for `CC(C)n1cc(C(=O)O)c(=O)c2cc(F)c(N3CCC(N)C3)cc21` (stereo unspecified): 0.8 mg/L (≈ 2.4 µM); for `O=C(O)c1cn(-c2ccc(F)cc2F)c2cc(N3CCNCC3)c(F)cc2c1=O`: 0.1 mg/L (≈ 0.248 µM); for `CCNCC1CCN(c2cc3c(cc2F)c(=O)c(C(=O)O)cn3-c2ccc(F)cc2F)C1` (stereo unspecified): 0.4 mg/L (≈ 0.898 µM).
`NCC1CCCN(c2c(F)cc3c(=O)c(C(=O)O)cn(C4CC4)c3c2N)C1` (stereo unspecified): the MIC is 0.4 mg/L (≈ 1.07 µM).
In the case of `NCC1CCCN(c2c(F)cc3c(=O)c(C(=O)O)cn(C4CC4)c3c2Cl)C1` (stereo unspecified) it was 0.1 mg/L (≈ 0.254 µM); in that of `CCN1CCN(c2cc3c(cc2F)c(=O)c(C(=O)O)cn3C(C)(C)C)CC1`, 0.2 mg/L (≈ 0.533 µM).
For the compound `CC1CN(c2cc3c(cc2F)c(=O)c(C(=O)O)cn3C2CC2)CCN1` (stereo unspecified), the lowest concentration to inhibit growth (MIC) was 0.05 mg/L (≈ 0.145 µM).
In turn, `CCOc1c(N2CCCC(CN)C2)c(F)cc2c(=O)c(C(=O)O)cn(C3CC3)c12` (stereo unspecified) yielded an MIC of 0.2 mg/L (≈ 0.496 µM).
In the case of `O=C(O)c1cn(C2CCC2)c2cc(N3CCNCC3)c(F)cc2c1=O` it was 0.4 mg/L (≈ 1.16 µM); in that of `CC(C)N1CCN(c2cc3c(cc2F)c(=O)c(C(=O)O)cn3C2CC2)CC1`, 0.1 mg/L (≈ 0.268 µM).
As to `CCOc1c(N2CCNC(C)C2)c(F)cc2c(=O)c(C(=O)O)cn(C3CC3)c12` (stereo unspecified), the MIC is 0.1 mg/L (≈ 0.257 µM).
The compound `NC1CCN(c2cc3c(cc2F)c(=O)c(C(=O)O)cn3C2CCC2)C1` (stereo unspecified) showed a minimal inhibitory concentration (MIC) of 0.4 mg/L (≈ 1.16 µM). This MIC is about 4-fold higher than that of the compound before.
